Reference: US6653081B2, “Methods for monitoring antiretroviral therapy and guiding therapeutic decision in the treatment of HIV/AIDS” (ViroLogic, Inc., priority 2000, dated 2003)

Legend:
RTV-010829/245V = assay: Phenotypic susceptibility assay, RTV-010829/245V; type: cell-based, HIV; conditions: RTV-010829 with V245E reverted
Text: (§1) The resistance test vectors containing a functional luciferase gene cassette were constructed and host cells were transfected with the resistance test vector DNA. The resistant test vectors contained patient-derived reverse transcriptase and protease sequences that were either susceptible or resistant to the antiretroviral agents, such as nucleoside reverse transcriptase inhibitors, (NRTIs) non-nucleoside reverse transcriptase inhibitors […] protease inhibitors. The resistance test vector viral particles produced by transfecting the resistance test vector DNA into host cells, either in the presence or absence of PRIs, were used to infect target host cells grown either in the absence of NRTIs or NNRTIs, or in the presence of increasing concentrations of the drug. The amount of luciferase activity produced in infected target host cells in the presence of varying concentrations of drug was compared to the amount of luciferase produced in infected target host cells in the absence of drug. “Drug resistance” was measured as the amount of drug required to inhibit by 50% the luciferase activity detected in the absence of drug (inhibitory concentration 50%, IC50). The IC50 values were determined by plotting percent drug inhibition vs. log10 drug concentration. Stimulation of viral replication was measured as the percent increase in luciferase activity detected when infection occurs in the presence of drug as compared to in the absence of drug.
(§2) Host cells were seeded in 10-cm-diameter dishes and were transfected several days after plating with resistance test vector plasmid DNA and the envelope expression vector. Transfections were performed using a calcium-phosphate precipitation procedure. The cell culture media containing the DNA precipitate was replaced with fresh medium, from one to 24 hours, after transfection. Cell culture media containing resistance test vector viral particles was harvested one to four days after transfection and was passed through a […] filter before being used to infect target host cells, or being stored at −80° C. HIV capsid protein (p24) levels in the harvested cell culture media were determined by an EIA method as described by the manufacturer (SAIC; Frederick, Md.). Before infection, target cells (293 and 293/T) were plated in cell culture media. Control infections were performed using cell culture media from mock transfections (no DNA) or transfections containing the resistance test vector plasmid DNA without the envelope expression plasmid. One to three or more days after infection, the media was removed and cell lysis buffer (Promega) was added to each well. Cell lysates were assayed for luciferase activity (FIG. 3). The inhibitory effect of the drug was determined using the following equation:
(§3) % luciferase inhibition=1−(RLUluc[drug]÷RLUluc)×100
(§4) where RLUluc [drug] is the Relative Light Unit of luciferase activity in infected cells in the presence of drug, and RLUluc is the Relative Light Unit of luciferase activity in infected cells in the absence of drug. IC50values were obtained from the sigmoidal curves that were generated from the data by plotting the percent inhibition of luciferase activity vs. the log10 drug concentration. The percent luciferase stimulation is the negative of the % inhibition calculated using the formula above.
A resistance test vector containing all of the mutations present in RTV-010829 except for the V245E mutation (RTV-010829/245V) was constructed and tested using the phenotypic assay described earlier. The results were compared to those determined using the parent RTV-010829. We determined the pattern of phenotypic susceptibility to the NNRTIs, delavirdine, nevirapine and efavirenz, in the reverted vector RTV-010829/245V. […] A resistance test vector containing all of the mutations present in RTV-010829 except for the I270M (RTV-010829/270I) was constructed and tested using the phenotypic assay described earlier. […]

RTV-011073 = assay: Phenotypic susceptibility assay, RTV-011073; type: cell-based, HIV; conditions: patient 011073; for decrease in susceptibility: V241S, K103N, I135T
Text: as §1, §2, §3, §4
(§5) A resistance test vector was constructed as described in Example 1 from a virus sample obtained from patient 011073. The prior and current treatment regimens are unknown. Isolation of viral RNA and RT/PCR was used to generate a patient derived segment (PDS) that comprised viral sequences coding for all of PR and aa 1-313 of RT. The PDS was inserted into an indicator gene viral vector to generate a resistance test vector designated RTV-011073. RTV-011073 was then tested in a phenotypic assay to determine accurately and quantitatively the level of susceptibility to a panel of anti-retroviral drugs. […]

RTV-1033-3/106V/227F = assay: Phenotypic susceptibility assay, RTV-1033-3/106V/227F; type: cell-based, HIV; conditions: RTV-1033-3 with V106A and F227L reverted
Text: as §1, §2, §3, §4
A resistance test vector containing all of the mutations present in RTV-1033-3 except for V106A and F227L (RTV-1033-3/106V/227F) was constructed and tested using the phenotypic assay described earlier. The results were compared to those determined using the parent RTV-1033-3. We determined the pattern of phenotypic susceptibility to the NNRTIs, delavirdine, nevirapine and efavirenz, in the reverted vector, RTV-1033-3/106V/227F.

RTV-013415 = assay: Phenotypic susceptibility assay, RTV-013415; type: cell-based, HIV; conditions: patient 013415; for decrease in susceptibility: V245M with multiple other mutations
Text: as §1, §2, §3, §4
as §5, with “patient 013415.” for “patient 011073.”, “PDS were” for “PDS was”, “designated RTV-013415. RTV-013415” for “designated RTV-011073. RTV-011073”

RTV-011073/241V/277T = assay: Phenotypic susceptibility assay, RTV-011073/241V/277T; type: cell-based, HIV; conditions: RTV-011073 with 241 and 277 reverted
Text: The resistance test vectors containing a functional luciferase gene cassette were constructed and host cells were transfected with the resistance test vector DNA. The resistant test vectors contained patient-derived reverse transcriptase and protease sequences that were either susceptible or resistant to the antiretroviral agents, such as nucleoside reverse transcriptase inhibitors, (NRTIs) non-nucleoside reverse transcriptase inhibitors […] protease inhibitors. The resistance test vector viral particles produced by transfecting the resistance test vector DNA into host cells, either in the presence or absence of PRIs, were used to infect target host cells grown either in the absence of NRTIs or NNRTIs, or in the presence of increasing concentrations of the drug. The amount of luciferase activity produced in infected target host cells in the presence of varying concentrations of drug was compared to the amount of luciferase produced in infected target host cells in the absence of drug. […] The IC50 values were determined by plotting percent drug inhibition vs. log10 drug concentration. Stimulation of viral replication was measured as the percent increase in luciferase activity detected when infection occurs in the presence of drug as compared to in the absence of drug.
Host cells were seeded in 10-cm-diameter dishes and were transfected several days after plating with resistance test vector plasmid DNA and the envelope expression vector. […] HIV capsid protein (p24) levels in the harvested cell culture media were determined by an EIA method as described by the manufacturer (SAIC; Frederick, Md.). […] The inhibitory effect of the drug was determined using the following equation: […]
where RLUluc [drug] is the Relative Light Unit of luciferase activity in infected cells in the presence of drug, and RLUluc is the Relative Light Unit of luciferase activity in infected cells in the absence of drug. […] The percent luciferase stimulation is the negative of the % inhibition calculated using the formula above. […]

RTV-V241S = assay: Phenotypic susceptibility assay, RTV-V241S; type: cell-based, HIV-1; conditions: site-directed V241S alone
Text: as §1, §2, §3, §4
A resistance test vector containing all of the mutations present in RTV-011073 except for the V241S and the T277K was constructed and tested using the phenotypic assay described earlier. The results were compared to those determined using the parent RTV-011073. We determined the pattern of phenotypic susceptibility to the NNRTIs, delavirdine, nevirapine and efavirenz, in the reverted vector RTV-011073/241V/277T. […] A resistance test vector containing all of the mutations present in RTV-011073 except for the V241S was constructed and tested using the phenotypic assay described earlier. The results were compared to those determined using the parent RTV-011073. […]

RTV-I135T/V245E = assay: Phenotypic susceptibility assay, RTV-I135T/V245E; type: cell-based, HIV-1; conditions: site-directed I135T + V245E
Text: as §1, §2, §3, §4
A resistance test vector containing two mutations, I135T and V245E (RTV-I135T/V245E) was constructed and tested in the phenotypic assay described earlier. The results were compared to those determined using a genetically defined resistance test vector that was wild type at positions 135 and 245. We determined the pattern of phenotypic susceptibility to the NNRTIs, delavirdine, nevirapine and efavirenz, in RTV-I135T/V245E.

Row | SMILES | drug-dependent stimulation of viral replication (RTV-010829/245V) [%] | reductions in susceptibility compared to wild type control RTV (RTV-010829/245V) [fold] | drug-dependent stimulation of viral replication (RTV-011073) [%] | decrease in susceptibility (RTV-011073) [fold] | drug-dependent stimulation of viral replication (RTV-1033-3/106V/227F) [%] | reductions in susceptibility compared to wild type control RTV (RTV-1033-3/106V/227F) [fold] | drug-dependent stimulation of viral replication (RTV-013415) [%] | decrease in susceptibility (RTV-013415) [fold] | reductions in susceptibility compared to wild type control RTV (RTV-011073/241V/277T) [fold] | drug-dependent stimulation of viral replication (RTV-V241S) | reductions in susceptibility compared to wild type control RTV (RTV-V241S) [fold] | drug-dependent stimulation of viral replication (RTV-I135T/V245E) | reductions in susceptibility compared to wild type control RTV (RTV-I135T/V245E) [fold]
1 | CC(C)Nc1cccnc1N1CCN(C(=O)c2cc3cc(NS(C)(=O)=O)ccc3[nH]2)CC1 [delavirdine] | ~60 | 182 | ~90 | > 250 | ~80 | 6 | ~30 | > 250 | 50 | ~25% | 6 | no drug-dependent stimulation | 2
2 | O=C1Nc2ccc(Cl)cc2[C@@](C#CC2CC2)(C(F)(F)F)O1 [efavirenz] | ~60 | 189 | ~80 | > 450 | ~80 | 6 | ~20 | > 450 | 54 | no drug-dependent stimulation | 3 | no drug-dependent stimulation | 2
3 | Cc1ccnc2c1NC(=O)c1cccnc1N2C1CC1 [nevirapine] | ~80 | 505 | ~70 | > 600 | ~110 | 13 | ~20 | > 600 | 126 | ~30% | 9 | no drug-dependent stimulation | 2.5
